Experimental data: US20230414506A1, “PEPTIDE FORMULATIONS AND METHODS OF USE” (REALTA LIFE SCIENCES, INC., priority 2020, published 2023)
Ends that are not written are not given here. dPEG24 = C-terminal PEG24

How the values were obtained:
[1] = format: physicochemical; conditions: 20% Intralipid, 4° C. for 48 hours
[2] = test system: complement activity (human O sera and AB red blood cells); experiment: ABO incompatibility CH50-type hemolytic assay of peptides formulated with different excipients; format: biochemical; conditions: for Inhibition of complement activation in the hemolytic assay: formulated in citrate, ascorbate and methionine, compared to histidine formulation
Description: To ascertain if these various excipients had any effect on the functional activity of PA-dPEG24 and PA-I8Sar, the formulated peptides were tested in a hemolytic assay to determine the ability of these molecules to inhibit complement activity. For hemolytic complement assays, human red blood cells (RBCs) from type AB donors were purified, washed and standardized to 1×10^9 cells/ml, as previously described. Human sera from type O donors at a 20% final concentration was combined with increasing concentrations of the formulated peptides and the volume was brought up to 0.15 ml with GVBS++ buffer and […] RBCs. The samples were spun at 3,000 rpm for 5 minutes and the supernatant was collected and read at 412 nm. Values are represented as a percent of the positive control, which consists of human O sera and AB red blood cells in GVBS++ buffer without peptide addition.

[3] = Gelling of citrate buffer formulation; format: physicochemical; conditions: 80 mg/ml, pH 6.8
Description: For the citrate buffer conditions, PA-dPEG24 and PA-I8Sar were formulated at a concentration of 80 mg/ml at pH 6.8. […] This gelling behavior was not observed for PA-I8Sar.

[4] = Aqueous solubility of the peptides; format: physicochemical
[5] = cited from earlier work

Substance | Appearance of Intralipid mixture on standing [1] | Inhibition of complement activation in the hemolytic assay [2] | Gelling behavior [3] | Solubility studies, character of the peptide [4] | Complement inhibiting activity compared between excipients ([2]; ascorbate, citrate, histidine, methionine formulations) | Aqueous solubility [5]
IALILEPICCQERAA [PA] | became paste-like | – | – | – | – | –
IALILEP(Sar)CCQERAA [PA-I8Sar] | – | able to maintain dose-dependent inhibition of complement activation | not observed | amphipathic | – | –
IALILEPICCQERAA-dPEG24 (cysteine pairing not given here) [PA-dPEG24] | – | able to maintain dose-dependent inhibition of complement activation | would start to gel if not kept on ice | – | slightly increased complement inhibiting activity compared to peptide formulated in methionine | highly soluble
